{"source": "patent US20090327175A1", "about": "“PHARMACOKINETIC MODELING OF MYCOPHENOLIC ACID” (priority 2006, published 2009)", "key": {"[1]": {"settings": "immediately post-transplantation; cited from earlier work"}, "[2]": {"experiment": "12 h plasma concentration/time profiles from six clinical studies of transplant patients receiving enteric coated mycophenolate salt (Myfortic)", "assay_type": "in vivo, human", "settings": "for AUC(0-t): human, plasma, oral, enteric coated mycophenolate salt (Myfortic), read-out: MPA AUC0-12, mean and SD, measured", "procedure": "334, 12 h plasma concentration/time profiles (217 for de novo and 117 for stable patients) are available from six clinical studies of transplant patients receiving enteric coated composition containing mycophenolate salt (Myfortic®) as part of their immunosuppressive drug regimen. Using 20 randomly selected profiles, population PK models (two-compartment for stable patients and a one-compartment for de novo patients) are developed using a Bayesian approach (i.e. approach to statistics in which estimates are based on a synthesis of a prior distribution and current sample data) to estimate the model parameters. The remaining profiles are used to test and validate the models."}}, "note": "Like-named read-outs stand apart in the source and are kept apart here.", "data": [{"smiles": "COc1c(C)c2c(c(O)c1C/C=C(\\C)CCC(=O)O)C(=O)OC2", "note": "[MPA, mycophenolic acid]", "values": [{"measurement": "optimal target MPA AUC0-12 suggested by previous controlled studies", "setting": "[1]", "value": "~45000", "unit": "ng·h/mL"}, {"measurement": "share of de novo patients below lower end of target range for MPA AUC0-12 (30 mg/L·h)", "setting": "[2]; fixed dose of 720 mg bid, during the two weeks after transplantation", "value": 50, "unit": "%"}, {"measurement": "AUC(0-t)", "setting": "[2]; 720 mg bid, de novo patients transplanted within the previous two weeks", "value": "32200 ± 17500", "unit": "ng·h/mL"}, {"measurement": "AUC(0-t)", "setting": "[2]; stable patients", "value": "65100 ± 26000", "unit": "ng·h/mL"}]}]}
